{"source": "patent US11963995B2", "about": "“Methods comprising desmopressin” (Ferring B.V., priority 2008, dated 2024)", "test_system": "adult patients with nocturia", "test": "Long term nocturnal voids, change from baseline up to week 52 (Parts II/III)", "type": "in vivo, human", "details": "for mean decrease in nocturnal voids per night at one year: Part III", "excerpt": "To ensure that the study remained fully blinded during the full extent of both Parts I and II, re-randomization of subjects assigned to placebo after 4 weeks of treatment was predetermined at the time of initial randomization. […] The total treatment duration for each subject depended on when that subject was randomized in Part I and was estimated to be a minimum of 4 weeks and a maximum of 6 months. Upon completion of Part II of the study, subjects were given the option to participate in an open-label study with expected total treatment duration (double-blind extension plus open-label study) of at least 12 months (i.e., Part III). In Part III, subjects were assigned to the same treatment as in Part II, initially in a blinded manner. Subjects were unblinded and the study became open label only when all subjects in Parts I and II remaining in the study had entered Part III. During Part III, 10 μg was identified as a sub-therapeutic dose based on efficacy data from Part I. As a consequence, patients in the 10 μg treatment group were re-randomized (beginning Q4 2008) to one of the other treatment groups (i.e., 25 μg, 50 μg, or 100 μg). The total treatment duration was at least 12 months. A total of 508 patients entered the open-labeled extension (i.e., Part III). […] A summary of the changes from baseline is presented for all eligible subjects. […] However, based on the data below, the additional decreases in the number of voids can be characterized as clinically significant. As used here, “clinically significant” means a minimum worthwhile effect."}
{"smiles": "NC(=O)CC[C@@H]1NC(=O)[C@H](Cc2ccccc2)NC(=O)[C@H](Cc2ccc(O)cc2)NC(=O)CCSSC[C@@H](C(=O)N2CCC[C@H]2C(=O)N[C@H](CCCN=C(N)N)C(=O)NCC(N)=O)NC(=O)[C@H](CC(N)=O)NC1=O", "note": "[desmopressin]", "values": [{"measurement": "mean decrease in nocturnal voids per night at one year", "setting": "25 μg, all eligible subjects", "value": 1.4, "unit": "voids per night"}, {"measurement": "Change from baseline of nocturnal voids, Mean", "setting": "25 μg, all eligible female subjects, Day 28", "value": "−1.26"}, {"measurement": "Change from baseline of nocturnal voids, Mean", "setting": "25 μg, all eligible female subjects, Week 8", "value": "−1.51"}, {"measurement": "Change from baseline of nocturnal voids, Mean", "setting": "25 μg, all eligible female subjects, Week 12", "value": "−1.66"}, {"measurement": "Change from baseline of nocturnal voids, Mean", "setting": "25 μg, all eligible female subjects, Week 20", "value": "−1.68"}, {"measurement": "Change from baseline of nocturnal voids, Mean", "setting": "25 μg, all eligible female subjects, Week 28", "value": "−1.86"}, {"measurement": "Change from baseline of nocturnal voids, Mean", "setting": "25 μg, all eligible female subjects, Week 52", "value": "−1.75"}, {"measurement": "Change from baseline of nocturnal voids, Mean", "setting": "25 μg, all eligible male subjects, Day 28", "value": "−0.76"}, {"measurement": "Change from baseline of nocturnal voids, Mean", "setting": "25 μg, all eligible male subjects, Week 8", "value": "−0.84"}, {"measurement": "Change from baseline of nocturnal voids, Mean", "setting": "25 μg, all eligible male subjects, Week 12", "value": "−0.90"}, {"measurement": "Change from baseline of nocturnal voids, Mean", "setting": "25 μg, all eligible male subjects, Week 20", "value": "−1.25"}, {"measurement": "Change from baseline of nocturnal voids, Mean", "setting": "25 μg, all eligible male subjects, Week 28", "value": "−1.15"}, {"measurement": "Change from baseline of nocturnal voids, Mean", "setting": "25 μg, all eligible male subjects, Week 52", "value": "−1.13"}, {"measurement": "Change from baseline of nocturnal voids, Mean", "setting": "25 μg, all eligible subjects, Day 28", "value": "−0.98"}, {"measurement": "Change from baseline of nocturnal voids, Mean", "setting": "25 μg, all eligible subjects, Week 8", "value": "−1.16"}, {"measurement": "Change from baseline of nocturnal voids, Mean", "setting": "25 μg, all eligible subjects, Week 12", "value": "−1.29"}, {"measurement": "Change from baseline of nocturnal voids, Mean", "setting": "25 μg, all eligible subjects, Week 20", "value": "−1.48"}, {"measurement": "Change from baseline of nocturnal voids, Mean", "setting": "25 μg, all eligible subjects, Week 28", "value": "−1.44"}, {"measurement": "Change from baseline of nocturnal voids, Mean", "setting": "25 μg, all eligible subjects, Week 52", "value": "−1.41"}, {"measurement": "Change from baseline of nocturnal voids, Mean", "setting": "25 μg, all subjects with or without an assessment at week 52, Day 28", "value": "−0.96"}, {"measurement": "Change from baseline of nocturnal voids, Mean", "setting": "25 μg, all subjects with or without an assessment at week 52, Week 12", "value": "−1.42"}, {"measurement": "Change from baseline of nocturnal voids, Mean", "setting": "25 μg, all subjects with or without an assessment at week 52, Week 20", "value": "−1.61"}, {"measurement": "Change from baseline of nocturnal voids, Mean", "setting": "25 μg, all subjects with or without an assessment at week 52, Week 28", "value": "−1.39"}, {"measurement": "Change from baseline of nocturnal voids, Mean", "setting": "25 μg, all subjects with or without an assessment at week 52, Week 52", "value": "−1.41"}, {"measurement": "Change from baseline of nocturnal voids, Mean", "setting": "25 μg, all subjects with or without an assessment at week 52, time printed as \"Week\" (between Day 28 and Week 12)", "value": "−1.31"}, {"measurement": "mean decrease in nocturnal voids per night at one year", "setting": "50 μg, all eligible subjects", "value": 1.77, "unit": "voids per night"}, {"measurement": "Change from baseline of nocturnal voids, Mean", "setting": "50 μg, all eligible female subjects, Day 28", "value": "−1.30"}, {"measurement": "Change from baseline of nocturnal voids, Mean", "setting": "50 μg, all eligible female subjects, Week 8", "value": "−1.60"}, {"measurement": "Change from baseline of nocturnal voids, Mean", "setting": "50 μg, all eligible female subjects, Week 12", "value": "−1.62"}, {"measurement": "Change from baseline of nocturnal voids, Mean", "setting": "50 μg, all eligible female subjects, Week 20", "value": "−1.93"}, {"measurement": "Change from baseline of nocturnal voids, Mean", "setting": "50 μg, all eligible female subjects, Week 28", "value": "−1.89"}, {"measurement": "Change from baseline of nocturnal voids, Mean", "setting": "50 μg, all eligible female subjects, Week 52", "value": "−1.95"}, {"measurement": "Change from baseline of nocturnal voids, Mean", "setting": "50 μg, all eligible male subjects, Day 28", "value": "−1.16"}, {"measurement": "Change from baseline of nocturnal voids, Mean", "setting": "50 μg, all eligible male subjects, Week 8", "value": "−1.31"}, {"measurement": "Change from baseline of nocturnal voids, Mean", "setting": "50 μg, all eligible male subjects, Week 12", "value": "−1.30"}, {"measurement": "Change from baseline of nocturnal voids, Mean", "setting": "50 μg, all eligible male subjects, Week 20", "value": "−1.73"}, {"measurement": "Change from baseline of nocturnal voids, Mean", "setting": "50 μg, all eligible male subjects, Week 28", "value": "−1.28"}, {"measurement": "Change from baseline of nocturnal voids, Mean", "setting": "50 μg, all eligible male subjects, Week 52", "value": "−1.69"}, {"measurement": "Change from baseline of nocturnal voids, Mean", "setting": "50 μg, all eligible subjects, Day 28", "value": "−1.22"}, {"measurement": "Change from baseline of nocturnal voids, Mean", "setting": "50 μg, all eligible subjects, Week 8", "value": "−1.44"}, {"measurement": "Change from baseline of nocturnal voids, Mean", "setting": "50 μg, all eligible subjects, Week 12", "value": "−1.44"}, {"measurement": "Change from baseline of nocturnal voids, Mean", "setting": "50 μg, all eligible subjects, Week 20", "value": "−1.80"}, {"measurement": "Change from baseline of nocturnal voids, Mean", "setting": "50 μg, all eligible subjects, Week 28", "value": "−1.55"}, {"measurement": "Change from baseline of nocturnal voids, Mean", "setting": "50 μg, all eligible subjects, Week 52", "value": "−1.80"}, {"measurement": "Change from baseline of nocturnal voids, Mean", "setting": "50 μg, all subjects with or without an assessment at week 52, Week 12", "value": "−1.51"}, {"measurement": "Change from baseline of nocturnal voids, Mean", "setting": "50 μg, all subjects with or without an assessment at week 52, Week 20", "value": "−1.71"}, {"measurement": "Change from baseline of nocturnal voids, Mean", "setting": "50 μg, all subjects with or without an assessment at week 52, Week 28", "value": "−1.55"}, {"measurement": "Change from baseline of nocturnal voids, Mean", "setting": "50 μg, all subjects with or without an assessment at week 52, Week 52", "value": "−1.80"}, {"measurement": "Change from baseline of nocturnal voids, Mean", "setting": "50 μg, all subjects with or without an assessment at week 52, time printed as \"Day\" (after Day 0)", "value": "−1.10"}, {"measurement": "Change from baseline of nocturnal voids, Mean", "setting": "50 μg, all subjects with or without an assessment at week 52, time printed as \"Week\" (before Week 12)", "value": "−1.43"}, {"measurement": "mean decrease in nocturnal voids per night at one year", "setting": "100 μg, all eligible subjects", "value": 2.11, "unit": "voids per night"}, {"measurement": "Change from baseline of nocturnal voids, Mean", "setting": "100 μg, all eligible female subjects, Day 28", "value": "−1.50"}, {"measurement": "Change from baseline of nocturnal voids, Mean", "setting": "100 μg, all eligible female subjects, Week 8", "value": "−1.69"}, {"measurement": "Change from baseline of nocturnal voids, Mean", "setting": "100 μg, all eligible female subjects, Week 12", "value": "−1.79"}, {"measurement": "Change from baseline of nocturnal voids, Mean", "setting": "100 μg, all eligible female subjects, Week 20", "value": "−1.98"}, {"measurement": "Change from baseline of nocturnal voids, Mean", "setting": "100 μg, all eligible female subjects, Week 28", "value": "−1.75"}, {"measurement": "Change from baseline of nocturnal voids, Mean", "setting": "100 μg, all eligible female subjects, Week 52", "value": "−2.11"}, {"measurement": "Change from baseline of nocturnal voids, Mean", "setting": "100 μg, all eligible male subjects, Day 28", "value": "−1.31"}, {"measurement": "Change from baseline of nocturnal voids, Mean", "setting": "100 μg, all eligible male subjects, Week 8", "value": "−1.52"}, {"measurement": "Change from baseline of nocturnal voids, Mean", "setting": "100 μg, all eligible male subjects, Week 12", "value": "−1.89"}, {"measurement": "Change from baseline of nocturnal voids, Mean", "setting": "100 μg, all eligible male subjects, Week 20", "value": "−1.92"}, {"measurement": "Change from baseline of nocturnal voids, Mean", "setting": "100 μg, all eligible male subjects, Week 28", "value": "−1.92"}, {"measurement": "Change from baseline of nocturnal voids, Mean", "setting": "100 μg, all eligible male subjects, Week 52", "value": "−2.12"}, {"measurement": "Change from baseline of nocturnal voids, Mean", "setting": "100 μg, all eligible subjects, Day 28", "value": "−1.406"}, {"measurement": "Change from baseline of nocturnal voids, Mean", "setting": "100 μg, all eligible subjects, Week 8", "value": "−1.61"}, {"measurement": "Change from baseline of nocturnal voids, Mean", "setting": "100 μg, all eligible subjects, Week 12", "value": "−1.83"}, {"measurement": "Change from baseline of nocturnal voids, Mean", "setting": "100 μg, all eligible subjects, Week 20", "value": "−1.95"}, {"measurement": "Change from baseline of nocturnal voids, Mean", "setting": "100 μg, all eligible subjects, Week 28", "value": "−1.83"}, {"measurement": "Change from baseline of nocturnal voids, Mean", "setting": "100 μg, all eligible subjects, Week 52", "value": "−2.11"}, {"measurement": "Change from baseline of nocturnal voids, Mean", "setting": "100 μg, all subjects with or without an assessment at week 52, Day 28", "value": "−1.31"}, {"measurement": "Change from baseline of nocturnal voids, Mean", "setting": "100 μg, all subjects with or without an assessment at week 52, Week 8", "value": "−1.47"}, {"measurement": "Change from baseline of nocturnal voids, Mean", "setting": "100 μg, all subjects with or without an assessment at week 52, Week 12", "value": "−1.73"}, {"measurement": "Change from baseline of nocturnal voids, Mean", "setting": "100 μg, all subjects with or without an assessment at week 52, Week 20", "value": "−1.86"}, {"measurement": "Change from baseline of nocturnal voids, Mean", "setting": "100 μg, all subjects with or without an assessment at week 52, Week 52", "value": "−2.11"}, {"measurement": "Change from baseline of nocturnal voids, Mean", "setting": "100 μg, all subjects with or without an assessment at week 52, time printed as \"Week\" (between Week 20 and Week 52)", "value": "−1.80"}]}
